Data: ChEMBL document CHEMBL4507262, “Data for DCP probe A-1596586” (2021)

Columns and labels:
[1] = biological target: L-type Ca2+ channel (diltiazem site, benzothiazepines) (Rattus norvegicus, UniProt P22002+P27732+Q02485); assay: Ca2+ channel (L, diltiazem site) (benzothiazepines) Eurofins-Cerep binding assay; type: protein assay; parameters: incubation time 120 min, incubation temperature RT, ligand concentration 15 nM; settings: rat cerebral cortex, probe [3H]diltiazem (15 nM), compound concentration 10 uM, read-out: % Inhibition of Control Specific Binding (Mean n=2)
[2] = biological target: SNF-related serine/threonine-protein kinase (Homo sapiens) (UniProt Q9NRH2); settings: Compound concentration 1000.0 nM
[3] = biological target: Death-associated protein kinase 3 (Homo sapiens) (UniProt O43293); settings: Compound concentration 1000.0 nM
[4] = biological target: T1, Alpha-2B adrenergic receptor (Homo sapiens) (UniProt P18089); assay: Alpha2B (h) Eurofins-Cerep binding assay; parameters: ligand concentration 2.5 nM; settings: filed as antagonist, Compound concentration 10.0 uM
T1 sequence (whole entry): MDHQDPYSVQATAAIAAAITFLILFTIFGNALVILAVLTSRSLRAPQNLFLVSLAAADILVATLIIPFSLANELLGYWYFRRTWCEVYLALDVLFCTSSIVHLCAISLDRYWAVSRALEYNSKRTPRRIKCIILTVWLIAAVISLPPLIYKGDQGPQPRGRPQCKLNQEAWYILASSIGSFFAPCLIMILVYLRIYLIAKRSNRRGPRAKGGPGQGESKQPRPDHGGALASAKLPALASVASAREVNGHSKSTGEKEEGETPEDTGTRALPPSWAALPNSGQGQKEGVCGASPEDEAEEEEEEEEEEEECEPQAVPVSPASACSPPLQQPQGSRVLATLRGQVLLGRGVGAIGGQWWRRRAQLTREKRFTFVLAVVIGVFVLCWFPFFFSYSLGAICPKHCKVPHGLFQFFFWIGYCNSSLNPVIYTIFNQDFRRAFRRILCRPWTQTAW

[5] = biological target: Platelet-derived growth factor receptor alpha (Homo sapiens) (UniProt P16234); settings: Compound concentration 1000.0 nM
[6] = biological target: Serine/threonine-protein kinase pim-2 (Homo sapiens) (UniProt Q9P1W9); settings: Compound concentration 1000.0 nM
[7] = biological target: Substance-P receptor (Homo sapiens) (UniProt P25103); assay: NK1 (h) Eurofins-Cerep binding assay; parameters: ligand concentration 0.05 nM; settings: filed as agonist, Compound concentration 10.0 uM
[8] = biological target: Serine/threonine-protein kinase LATS2 (Homo sapiens) (UniProt Q9NRM7); settings: Compound concentration 1000.0 nM
[9] = biological target: Platelet-derived growth factor receptor beta (Homo sapiens) (UniProt P09619); settings: Compound concentration 1000.0 nM
[10] = biological target: Atypical kinase COQ8A, mitochondrial (Homo sapiens) (UniProt Q8NI60); settings: Compound concentration 1000.0 nM
[11] = biological target: Death-associated protein kinase 2 (Homo sapiens) (UniProt Q9UIK4); settings: Compound concentration 1000.0 nM
[12] = biological target: SRSF protein kinase 2 (Homo sapiens) (UniProt P78362); settings: Compound concentration 1000.0 nM
[13] = test system: Phosphatidylinositol 4,5-bisphosphate 3-kinase catalytic subunit alpha isoform (Homo sapiens), P42336 [E545A]; settings: Compound concentration 1000.0 nM
[14] = biological target: D(3) dopamine receptor (Homo sapiens) (UniProt P35462); settings: Compound concentration 10.0 uM
[15] = biological target: Calcium/calmodulin-dependent protein kinase type 1B (Homo sapiens) (UniProt Q6P2M8); settings: Compound concentration 1000.0 nM
[16] = biological target: Membrane-associated tyrosine- and threonine-specific cdc2-inhibitory kinase (Homo sapiens) (UniProt Q99640); settings: Compound concentration 1000.0 nM
[17] = biological target: Serine/threonine-protein kinase Chk1 (Homo sapiens) (UniProt O14757); settings: Compound concentration 1000.0 nM
[18] = biological target: Dual specificity mitogen-activated protein kinase kinase 6 (Homo sapiens) (UniProt P52564); settings: Compound concentration 1000.0 nM
[19] = biological target: Ephrin type-A receptor 4 (Homo sapiens) (UniProt P54764); settings: Compound concentration 1000.0 nM
[20] = biological target: Serine/threonine-protein kinase ICK (Homo sapiens) (UniProt Q9UPZ9); settings: Compound concentration 1000.0 nM
[21] = biological target: Serine/threonine-protein kinase MRCK gamma (Homo sapiens) (UniProt Q6DT37); settings: Compound concentration 1000.0 nM
[22] = biological target: T2, Muscarinic acetylcholine receptor M2 (Homo sapiens) (UniProt P08172); assay: M2 (h) Eurofins-Cerep binding assay; parameters: ligand concentration 2 nM; settings: filed as antagonist, Compound concentration 10.0 uM
T2 sequence (whole entry): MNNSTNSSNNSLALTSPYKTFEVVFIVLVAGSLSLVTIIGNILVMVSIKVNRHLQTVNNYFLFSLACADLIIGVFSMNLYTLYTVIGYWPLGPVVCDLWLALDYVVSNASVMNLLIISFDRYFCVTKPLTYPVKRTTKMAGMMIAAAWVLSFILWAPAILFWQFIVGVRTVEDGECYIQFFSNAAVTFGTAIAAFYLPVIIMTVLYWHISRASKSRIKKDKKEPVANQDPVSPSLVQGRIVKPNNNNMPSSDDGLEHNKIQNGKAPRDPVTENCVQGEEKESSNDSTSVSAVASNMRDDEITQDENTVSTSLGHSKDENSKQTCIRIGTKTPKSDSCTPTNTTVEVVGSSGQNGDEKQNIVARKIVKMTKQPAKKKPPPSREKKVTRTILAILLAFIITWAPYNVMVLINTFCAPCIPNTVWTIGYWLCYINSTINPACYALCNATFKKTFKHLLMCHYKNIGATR

[23] = biological target: voltage-gated Na+ channel (site 2) (Rattus norvegicus, UniProt F1LQQ7+O08562+O88420+O88457+P04774+P04775+P08104+P15389+P15390+Q62968); assay: Na+ channel (site 2) Eurofins-Cerep binding assay; type: protein assay; parameters: incubation time 60 min, incubation temperature 37°C, ligand concentration 10 nM; settings: rat cerebral cortex, probe [3H]batrachotoxin (10 nM), compound concentration 10 uM, read-out: % Inhibition of Control Specific Binding (Mean n=2)
[24] = biological target: Neuropeptide Y receptor type 1 (Homo sapiens) (UniProt P25929); assay: Y1 (h) Eurofins-Cerep binding assay; parameters: ligand concentration 0.025 nM; settings: filed as agonist, Compound concentration 10.0 uM
[25] = biological target: Ephrin type-A receptor 1 (Homo sapiens) (UniProt P21709); settings: Compound concentration 1000.0 nM
[26] = biological target: Myosin light chain kinase (Homo sapiens) (UniProt Q32MK0); settings: Compound concentration 1000.0 nM
[27] = biological target: Tyrosine-protein kinase receptor UFO (Homo sapiens) (UniProt P30530); settings: Compound concentration 1000.0 nM
[28] = biological target: Aurora kinase A (Homo sapiens) (UniProt O14965); settings: Compound concentration 1000.0 nM
[29] = biological target: STE20/SPS1-related proline-alanine-rich protein kinase (Homo sapiens) (UniProt Q9UEW8); settings: Compound concentration 1000.0 nM
[30] = biological target: Protein kinase C delta type (Homo sapiens) (UniProt Q05655); settings: Compound concentration 1000.0 nM

Serine/threonine-protein kinase Chk1 (Homo sapiens), sequence (O14757 whole entry): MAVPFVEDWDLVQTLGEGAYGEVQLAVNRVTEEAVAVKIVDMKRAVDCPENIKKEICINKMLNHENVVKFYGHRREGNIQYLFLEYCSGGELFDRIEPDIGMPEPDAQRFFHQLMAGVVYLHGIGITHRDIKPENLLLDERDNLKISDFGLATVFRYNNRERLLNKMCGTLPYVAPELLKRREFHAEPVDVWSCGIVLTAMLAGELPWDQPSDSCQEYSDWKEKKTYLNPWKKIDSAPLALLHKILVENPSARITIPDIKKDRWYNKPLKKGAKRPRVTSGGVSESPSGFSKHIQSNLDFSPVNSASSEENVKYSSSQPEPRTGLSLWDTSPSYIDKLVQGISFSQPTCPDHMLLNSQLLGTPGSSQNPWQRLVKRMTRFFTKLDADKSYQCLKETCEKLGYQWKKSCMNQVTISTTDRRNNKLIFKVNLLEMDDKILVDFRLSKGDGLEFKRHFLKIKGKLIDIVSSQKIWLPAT
Substance-P receptor (Homo sapiens), sequence (P25103 whole entry): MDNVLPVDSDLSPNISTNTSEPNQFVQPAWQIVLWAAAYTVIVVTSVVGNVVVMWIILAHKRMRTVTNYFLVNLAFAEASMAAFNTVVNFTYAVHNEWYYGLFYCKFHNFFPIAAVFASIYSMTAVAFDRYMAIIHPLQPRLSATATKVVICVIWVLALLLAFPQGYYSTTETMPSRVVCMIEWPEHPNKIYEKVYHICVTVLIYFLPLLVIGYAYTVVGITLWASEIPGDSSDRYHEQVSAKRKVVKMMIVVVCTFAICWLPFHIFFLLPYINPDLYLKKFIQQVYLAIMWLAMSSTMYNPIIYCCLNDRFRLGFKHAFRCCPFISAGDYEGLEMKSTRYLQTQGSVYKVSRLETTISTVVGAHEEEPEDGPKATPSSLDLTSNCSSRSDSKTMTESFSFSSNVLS
Platelet-derived growth factor receptor alpha (Homo sapiens), sequence (P16234 whole entry): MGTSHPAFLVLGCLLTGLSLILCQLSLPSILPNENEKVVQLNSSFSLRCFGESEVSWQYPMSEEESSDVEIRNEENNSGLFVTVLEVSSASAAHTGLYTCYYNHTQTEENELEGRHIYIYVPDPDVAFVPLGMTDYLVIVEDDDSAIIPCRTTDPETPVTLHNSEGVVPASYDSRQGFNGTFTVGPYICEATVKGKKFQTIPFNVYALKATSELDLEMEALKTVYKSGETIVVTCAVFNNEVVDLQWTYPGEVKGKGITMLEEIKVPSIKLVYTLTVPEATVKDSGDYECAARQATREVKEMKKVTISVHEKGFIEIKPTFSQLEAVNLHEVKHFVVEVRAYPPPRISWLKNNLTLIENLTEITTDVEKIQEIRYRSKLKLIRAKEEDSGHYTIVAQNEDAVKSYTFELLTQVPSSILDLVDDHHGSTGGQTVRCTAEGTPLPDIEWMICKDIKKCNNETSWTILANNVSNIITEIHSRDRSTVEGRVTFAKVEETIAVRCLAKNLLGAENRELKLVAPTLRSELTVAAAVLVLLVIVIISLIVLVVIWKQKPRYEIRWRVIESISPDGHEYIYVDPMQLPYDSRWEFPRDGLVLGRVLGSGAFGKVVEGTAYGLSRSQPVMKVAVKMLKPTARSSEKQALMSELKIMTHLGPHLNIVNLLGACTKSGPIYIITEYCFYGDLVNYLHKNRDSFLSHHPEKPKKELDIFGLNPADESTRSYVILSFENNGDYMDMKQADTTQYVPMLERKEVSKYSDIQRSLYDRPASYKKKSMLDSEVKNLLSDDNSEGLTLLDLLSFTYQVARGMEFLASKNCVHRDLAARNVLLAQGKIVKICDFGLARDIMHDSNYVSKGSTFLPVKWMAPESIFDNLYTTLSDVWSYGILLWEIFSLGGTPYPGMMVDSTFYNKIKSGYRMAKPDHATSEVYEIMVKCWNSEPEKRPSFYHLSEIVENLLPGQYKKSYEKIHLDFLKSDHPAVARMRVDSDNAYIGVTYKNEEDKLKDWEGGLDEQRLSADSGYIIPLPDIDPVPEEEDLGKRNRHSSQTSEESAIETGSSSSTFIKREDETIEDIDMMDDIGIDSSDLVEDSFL
Ephrin type-A receptor 1 (Homo sapiens), sequence (P21709 whole entry): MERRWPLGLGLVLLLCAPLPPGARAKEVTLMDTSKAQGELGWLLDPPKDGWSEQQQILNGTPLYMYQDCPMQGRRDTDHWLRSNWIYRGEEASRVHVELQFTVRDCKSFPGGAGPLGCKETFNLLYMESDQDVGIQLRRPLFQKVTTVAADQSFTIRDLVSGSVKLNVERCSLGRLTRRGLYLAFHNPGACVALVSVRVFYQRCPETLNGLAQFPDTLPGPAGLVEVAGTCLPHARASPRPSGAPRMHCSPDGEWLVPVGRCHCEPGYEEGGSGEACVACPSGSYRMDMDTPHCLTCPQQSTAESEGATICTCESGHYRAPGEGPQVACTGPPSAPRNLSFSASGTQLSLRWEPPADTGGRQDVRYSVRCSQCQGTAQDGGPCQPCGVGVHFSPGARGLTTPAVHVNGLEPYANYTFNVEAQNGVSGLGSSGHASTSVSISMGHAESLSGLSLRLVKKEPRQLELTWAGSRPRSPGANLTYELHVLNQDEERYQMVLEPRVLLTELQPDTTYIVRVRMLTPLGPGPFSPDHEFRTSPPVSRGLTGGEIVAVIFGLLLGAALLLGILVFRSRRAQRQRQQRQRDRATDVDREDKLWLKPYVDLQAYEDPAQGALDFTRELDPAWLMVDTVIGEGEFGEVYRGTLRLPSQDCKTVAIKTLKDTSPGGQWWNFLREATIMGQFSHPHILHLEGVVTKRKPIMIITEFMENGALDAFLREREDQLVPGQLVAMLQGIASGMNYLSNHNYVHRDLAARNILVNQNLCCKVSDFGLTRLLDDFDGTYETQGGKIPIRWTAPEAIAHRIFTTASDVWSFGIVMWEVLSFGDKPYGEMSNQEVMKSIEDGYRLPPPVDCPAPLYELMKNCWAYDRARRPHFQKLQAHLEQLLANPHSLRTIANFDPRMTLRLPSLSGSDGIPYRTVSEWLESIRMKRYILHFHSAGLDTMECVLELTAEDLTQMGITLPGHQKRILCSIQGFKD
Tyrosine-protein kinase receptor UFO (Homo sapiens), sequence (P30530 whole entry): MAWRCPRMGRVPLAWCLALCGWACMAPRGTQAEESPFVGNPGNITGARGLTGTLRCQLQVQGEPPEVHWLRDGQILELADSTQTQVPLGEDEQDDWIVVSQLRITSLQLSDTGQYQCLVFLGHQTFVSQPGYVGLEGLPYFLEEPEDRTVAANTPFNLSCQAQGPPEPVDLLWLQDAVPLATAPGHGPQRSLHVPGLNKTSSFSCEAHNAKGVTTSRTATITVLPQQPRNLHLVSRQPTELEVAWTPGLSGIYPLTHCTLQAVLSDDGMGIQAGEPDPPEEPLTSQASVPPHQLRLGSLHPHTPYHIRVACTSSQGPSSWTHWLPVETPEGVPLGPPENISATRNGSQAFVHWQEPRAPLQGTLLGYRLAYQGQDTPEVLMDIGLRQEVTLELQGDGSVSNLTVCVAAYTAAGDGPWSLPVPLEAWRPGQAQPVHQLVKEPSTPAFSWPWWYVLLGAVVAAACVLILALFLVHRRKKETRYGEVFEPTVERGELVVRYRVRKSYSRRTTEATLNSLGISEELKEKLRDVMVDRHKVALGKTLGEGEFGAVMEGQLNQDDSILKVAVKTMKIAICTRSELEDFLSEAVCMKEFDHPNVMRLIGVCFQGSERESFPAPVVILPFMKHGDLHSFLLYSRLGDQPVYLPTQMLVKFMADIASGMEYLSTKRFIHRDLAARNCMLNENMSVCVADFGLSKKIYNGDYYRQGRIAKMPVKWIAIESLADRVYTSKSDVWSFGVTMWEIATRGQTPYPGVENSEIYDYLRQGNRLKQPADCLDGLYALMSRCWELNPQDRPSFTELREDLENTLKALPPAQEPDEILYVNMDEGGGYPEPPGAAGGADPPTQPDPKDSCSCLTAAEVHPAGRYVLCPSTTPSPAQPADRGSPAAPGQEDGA
Death-associated protein kinase 2 (Homo sapiens), sequence (Q9UIK4 whole entry, looked up): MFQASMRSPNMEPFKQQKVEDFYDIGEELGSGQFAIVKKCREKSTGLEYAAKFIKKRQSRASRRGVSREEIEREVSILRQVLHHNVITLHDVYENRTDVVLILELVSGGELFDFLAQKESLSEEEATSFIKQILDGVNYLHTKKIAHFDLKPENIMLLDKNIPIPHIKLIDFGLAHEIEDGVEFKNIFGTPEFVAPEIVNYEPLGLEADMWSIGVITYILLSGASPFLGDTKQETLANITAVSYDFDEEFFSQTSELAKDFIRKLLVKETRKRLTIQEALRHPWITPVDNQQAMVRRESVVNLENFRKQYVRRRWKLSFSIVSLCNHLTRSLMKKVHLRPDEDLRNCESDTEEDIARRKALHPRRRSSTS
D(3) dopamine receptor (Homo sapiens), sequence (P35462 whole entry): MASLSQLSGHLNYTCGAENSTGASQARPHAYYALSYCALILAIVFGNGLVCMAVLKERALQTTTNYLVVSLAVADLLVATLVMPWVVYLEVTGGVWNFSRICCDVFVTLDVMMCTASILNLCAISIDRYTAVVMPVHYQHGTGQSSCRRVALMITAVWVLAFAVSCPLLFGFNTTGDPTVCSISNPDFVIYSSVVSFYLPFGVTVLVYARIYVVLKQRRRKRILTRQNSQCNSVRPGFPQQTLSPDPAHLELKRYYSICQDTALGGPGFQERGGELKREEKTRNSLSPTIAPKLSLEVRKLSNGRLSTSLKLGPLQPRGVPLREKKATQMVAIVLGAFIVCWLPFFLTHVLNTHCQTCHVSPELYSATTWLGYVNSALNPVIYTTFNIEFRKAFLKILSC
Neuropeptide Y receptor type 1 (Homo sapiens), sequence (P25929 whole entry): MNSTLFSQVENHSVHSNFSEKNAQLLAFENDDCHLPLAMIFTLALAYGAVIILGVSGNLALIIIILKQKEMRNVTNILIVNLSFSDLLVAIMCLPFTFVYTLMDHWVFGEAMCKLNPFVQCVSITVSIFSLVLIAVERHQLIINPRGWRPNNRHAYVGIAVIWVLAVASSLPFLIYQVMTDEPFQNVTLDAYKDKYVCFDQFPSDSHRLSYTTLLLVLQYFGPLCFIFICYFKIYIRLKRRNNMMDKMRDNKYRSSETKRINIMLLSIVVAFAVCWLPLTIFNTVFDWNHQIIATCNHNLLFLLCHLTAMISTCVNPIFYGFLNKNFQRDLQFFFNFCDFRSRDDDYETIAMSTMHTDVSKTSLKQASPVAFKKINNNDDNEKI

Row | SMILES | inhibition at 120 min, 10 µM [1] | residual activity [2] | residual activity [3] | % Inhibition of Control Specific Binding (Mean n=2) [4] | residual activity [5] | residual activity [6] | % Inhibition of Control Specific Binding (Mean n=2) [7] | residual activity [8] | residual activity [9] | residual activity [10] | residual activity [11] | residual activity [12] | residual activity [13] | inhibition [14] | residual activity [15] | residual activity [16] | residual activity [17] | residual activity [18] | residual activity [19] | residual activity [20] | also measured
1 | COc1ccc2c(c1)O[C@H](c1ccc(OC)c(OC)c1)C[C@@H]2NC(=O)C1(c2ccc3c(c2)OC(F)(F)O3)CC1 [A-1596584] | -7.6% | 92% | 95% | 36.4% | 87% | 100% | 92.1% | 89% | 100% | 100% | 98% | 100% | 100% | -9.23% | 100% | 100% | 100% | 100% | 91% | 80% | residual activity [21]: 89%; % Inhibition of Control Specific Binding (Mean n=2) [22]: -5.5%; inhibition at 60 min, 10 µM [23]: 47.3%; % Inhibition of Control Specific Binding (Mean n=2) [24]: -0.4%; residual activity [25]: 88%; residual activity [26]: 95%; residual activity [27]: 100%; residual activity [28]: 100%; residual activity [29]: 100%; residual activity [30]: 100%
2 | COc1ccc2c(c1)O[C@@H](c1ccc(OC)c(OC)c1)C[C@H]2NC(=O)C1(c2ccc3c(c2)OC(F)(F)O3)CC1 [A-1596586] | 29.7% | 90% | 93% | 63.5% | 78% | 100% | 44.4% | 100% | 100% | 87% | 98% | 91% | 94% | -1.53% | 100% | 90% | 100% | 100% | 100% | 74% | residual activity [21]: 89%; % Inhibition of Control Specific Binding (Mean n=2) [22]: -9.9%; inhibition at 60 min, 10 µM [23]: 35%; % Inhibition of Control Specific Binding (Mean n=2) [24]: 9.8%; residual activity [25]: 93%; residual activity [26]: 95%; residual activity [27]: 100%; residual activity [28]: 92%; residual activity [29]: 71%; residual activity [30]: 100%
